Entries after “also recorded” stand apart in the source; their conditions may differ.
Key:
[1] = tested on: zebrafish kmt2d morphants; experiment: Jaw defect (MK-CH cartilage distance, Alcian blue) in kmt2d morphants; assay type: in vivo; conditions: for jaw defect, distance between MK and CH cartilages: 100 nM, 5 dpf
Protocol: To test the first criterion, the CE rescue paradigm was repeated four times by two different investigators, each using independent zebrafish adult stocks.
Morpholinos (MO) were obtained from Gene Tools (Gene Tools, LLC, Philomath, Oreg., USA) and have been described previously (see, Bogershausen, N. et al. J Clin Invest 125, 3585-99 (2015)); kmt2d-MO: 5′-[…]-3′(SEQ ID NO: 1) (5 ng); kdm6a-MO: 5′-[…] (SEQ ID NO: 2) (10 ng). kmt2d-MO and kdm6a-MO was injected into wild type (WT) Ekkwill (EK) zebrafish embryos obtained from natural matings at the 1-4 cell stage. CRISPR target sequences (rap1a: 5′-[…]-3′ (SEQ ID NO: 3) [120 pg], rap1b: 5′-[…]-3′ (SEQ ID NO: 4) [120 pg] (see, Bogershausen, N. et al. J Clin Invest 125, 3585-99 (2015)), and kmt2d: 5′-[…] (SEQ ID NO: 5) [50 pg]) were identified by crispr.mit.edu and cloned into pT7-gRNA (Addgene, Cambridge, USA) following the protocol described in http://www.addgene.org/crispr/Chen/. Guide (g)RNAs were synthesized using the T7 MEGAshortscript kit (ThermoFisher Scientific). An injection solution of gRNA plus 100 pg Cas9 protein (PNA Bio) was injected into wild type Ekkwill (EK) zebrafish embryos obtained from natural matings at the 1-cell stage. Embryos were treated with compound at the 8-cell stage. All compounds were dissolved in dimethyl sulfoxide (DMSO; 10 mM), and subsequently diluted with water to 100 μM. Using egg water, we then diluted the 100 μM solution to the concentration specific to each experiment in egg water. Embryos were incubated at 28.5° C. and egg water containing compound was replaced daily until phenotyping, mass spectrometry, or immunoblotting analysis.
For convergence and extension (CE) phenotyping, embryos were scored as described (see, Leitch, C. C. et al. Nat Genet 40, 443-8 (2008)) at the 8-10 somite stage, and images were captured using an AZ100 microscope and NIS Elements software (Nikon). To assess mandibular phenotypes, Alcian blue staining was used to stain cartilage structures in 5 dpf larvae as described (see, Chassaing, N. et al. J Med Genet 49, 373-9 (2012)). Stained larvae were imaged in glycerol using an SMZ745T stereomicroscope (Nikon). The distance between Meckel's (MK) and ceratohyal (CH) cartilages was measured on ventral bright field images with Image J (NIH). For brain cell proliferation assays, injected embryos were fixed in Dent's solution at 2 dpf. […] Fluorescence signal on embryo heads was imaged with the Nikon AZ100 microscope and DS-Qi1MC digital camera using […] Z-stacks to generate extended depth of focus images. Cell numbers were quantified using the ImageJ ICTN plugin (NIH). […]

kdm6a-MO embryos = experiment: Jaw defect (MK-CH distance) in kdm6a-MO embryos; assay type: in vivo, zebrafish; conditions: kdm6a morphant, 5 dpf
Protocol: FIG. 4: Compound 8 ameliorates the CE and jaw defects caused by loss of rap/and kdm6a. (a) gRNA targeting both zebrafish rap1a and rap1b were injected into embryos at the 1-cell stage with Cas9 protein. Larvae were incubated with compound 8 (100 nM) at the 8-cell stage and scored for micrognathia. 5 dpf larvae were stained with Alcian blue to assess the layout of the jaw cartilage. In comparison to control embryos (top), rap1-CRISPR embryos have smaller jaws. […] (b) Quantitative measurement of the distance between MK and CH cartilages. (c) Larvae were scored for CE (n>30 for each concentration). (d) 5 dpf embryos were stained with Alcian blue to assess the layout of jaw cartilage. […] (e) Quantitative measurement of the distance between MK and CH cartilages. *p<0.05; ***p<0.001. […]
For convergence and extension (CE) phenotyping, embryos were scored as described (see, Leitch, C. C. et al. Nat Genet 40, 443-8 (2008)) at the 8-10 somite stage, and images were captured using an AZ100 microscope and NIS Elements software (Nikon). […] The distance between Meckel's (MK) and ceratohyal (CH) cartilages was measured on ventral bright field images with Image J (NIH). […] Fluorescence signal on embryo heads was imaged with the Nikon AZ100 microscope and DS-Qi1MC digital camera using […] Z-stacks to generate extended depth of focus images. Cell numbers were quantified using the ImageJ ICTN plugin (NIH). […]

| Structure (SMILES) | jaw defect, distance between MK and CH cartilages [1] | jaw length / MK-CH distance (kdm6a-MO embryos) | jaw defect, distance between MK and CH cartilages ([1]; listed as dmDf) | jaw rescue at dosages beyond 100 nM ([1]; dose response, above 100 nM up to 1 μM) |
| --- | --- | --- | --- | --- |
| CC[C@@H](CO)Nc1ncc(C)c(-c2c[nH]c(C(=O)N[C@H](CO)c3cccc(Cl)c3)c2)n1 [Compound 2, N-((S)-1-(3-chlorophenyl)-2-hydroxyethyl)-4-(2-(((S)-1-hydroxybutan-2-yl)amino)-5-methylpyrimidin-4-yl)-1H-pyrrole-2-carboxamide] | ameliorates this defect; also recorded: rescue significantly | restored significantly the jaw length of morphants and mutants to nearly wild type levels |  |  |
| CC(C)c1nc(-c2cccc(NS(=O)(=O)c3c(F)cccc3F)c2F)c(-c2ccnc(N)n2)s1 [Compound 8, desmethyl-Dabrafenib] | ameliorates this defect; also recorded: rescue significantly | can be ameliorated; also recorded: restored significantly the jaw length of morphants and mutants to nearly wild type levels | able to rescue the jaw layout | higher dosages did not improve efficacy any further |

Reference: US20210196714A1, “COMPOSITIONS AND METHODS FOR TREATING DISORDERS CHARACTERIZED WITH ABERRANT RAS/MAPK SIGNALING” (Duke University, priority 2018, published 2021)
